In one test the target is Carbonic anhydrase 9 (Homo sapiens, UniProt Q16790).
The test system of test [1] is T47D. Kind of test: Antiproliferative activity against human T47D cells assessed as cell growth inhibition incubated for 4 hrs under hypoxia condition by MTT colorimetric assay. The format is functional, cell-based. On the technique in general: Tetrazolium dyes change colour on reduction, which living cells bring about.
The test system of test [2] is T47D. The test can be described thus: Antiproliferative activity against human T47D cells assessed as cell growth inhibition incubated for 4 hrs under normoxia condition by MTT colorimetric assay. It counts as functional, cell-based.
The subject of test [3] is MCF7. The test can be described thus: Antiproliferative activity against human MCF7 cells assessed as cell growth inhibition incubated for 4 hrs under normoxia condition by MTT colorimetric assay. Conditions: MCF7, 4 h. The format is functional, cell-based.
For test [4], the system named is MCF7. The test can be described thus: Antiproliferative activity against human MCF7 cells assessed as cell growth inhibition incubated for 4 hrs under hypoxia condition by MTT colorimetric assay. It counts as functional, cell-based. The note with it: MCF7, 4 h.

Each structure is given as a SMILES string.

The text below walks through data of ChEMBL document CHEMBL5113396, “Development of 4-((3-oxo-3-phenylpropyl)amino)benzenesulfonamide derivatives utilizing tail/dual-tail approaches as novel carbonic anhydrase inhibitors” (Eur J Med Chem, 2022).

Description for Carbonic anhydrase 9: Inhibition of human carbonic anhydrase 9 assessed as inhibition constant incubated for 15 mins prior to testing by phenol red based stopped-flow CO2 hydration assay

A word on the Ki: it is the dissociation constant of the complex between target and ligand, obtained from inhibition or displacement. A low value points to tighter binding. At Carbonic anhydrase 9, `NS(=O)(=O)c1cccc(NCCC(=O)c2ccccc2)c1` gave a Ki of 75.7 nM. In turn, `NS(=O)(=O)c1ccc(NNCCC(=O)c2ccc3ccccc3c2)cc1` showed a Ki at Carbonic anhydrase 9 of 66.7 nM. Still for that read-out and setting: the result for `NS(=O)(=O)c1ccc(C(=O)NNCCC(=O)c2ccccc2)cc1` reads 45.3 nM; that for `NS(=O)(=O)c1cccc(NCCC(=O)c2ccc3ccccc3c2)c1`, 38.7 nM. What is called IC50 is the point on the concentration scale where inhibition reaches its midpoint. For `NS(=O)(=O)c1ccc(NCC/C(=N/CCO)c2ccccc2)cc1`, the IC50 with T47D [1] came to 10900 nM; in the test with T47D [2], 43100 nM; in the test with MCF7 [3], 29300 nM; in the test on MCF7 [4] it was 5700 nM. In addition, the inhibition constant (Ki) at Carbonic anhydrase 9 was 10.2 nM.

`NS(=O)(=O)c1ccc(C(=O)NNCCC(=O)c2ccc3ccccc3c2)cc1`: affinity at Carbonic anhydrase 9 was put at a Ki of 36.3 nM. In other words, the double-digit nanomolar range. The same measure, in the same setting: next, `NS(=O)(=O)c1ccc(NNCCC(=O)c2ccccc2)cc1`: 82.5 nM. Regarding `NS(=O)(=O)c1ccc(NCCC(=O)c2ccc3ccccc3c2)cc1`, the IC50 in the test on T47D [1] was 19000 nM; in the test on T47D [2], over 100000 nM; in the test with MCF7 [3], 55100 nM; in the test on MCF7 [4], 7500 nM. At Carbonic anhydrase 9, this compound gave a Ki of 9.4 nM. As to `NS(=O)(=O)c1ccc(CCNCCC(=O)c2ccccc2)cc1`, the Ki on Carbonic anhydrase 9 stood at 87.9 nM.

As to `NS(=O)(=O)c1ccc(NCC/C(=N\O)c2ccccc2)cc1`, the Ki at Carbonic anhydrase 9 was found to be 53.8 nM. On the same count and under the same terms, next, `NS(=O)(=O)c1ccccc1NCCC(=O)c1ccccc1`: 313 nM; `NS(=O)(=O)c1ccccc1NCCC(=O)c1ccc2ccccc2c1`: 945 nM.

For the compound `COc1cccc2c1C(=O)c1c(O)c3c(c(O)c1C2=O)C[C@@](O)(C(=O)CO)C[C@@H]3O[C@H]1C[C@H](N)[C@H](O)[C@H](C)O1` [DOXORUBICIN], the IC50 in the test with T47D [1] turned out to be 3800 nM; with T47D [2] it was 3200 nM. On Carbonic anhydrase 9, `NS(=O)(=O)c1ccc(NCCC(=O)c2ccccc2)cc1` had a Ki of 51.5 nM.
